Measured values published in publication PMC11951083, “Highly Specific Miniaturized Fluorescent Monoacylglycerol Lipase Probes Enable Translational Research” (Journal of the American Chemical Society, 2025).

Assays:
[1] = molecular target: NanoLuc luciferase MAGL fusion protein; assay: Cellular MAGL NanoBRET target engagement assay in live HEK293 cells; format: cell-based; conditions: SI Table 1, live HEK293 cells; read-out: NanoBRET IC50 ± SEM, HEK293
Protocol: This assay was performed as first described before.20
Compounds were profiled by a novel cellular MAGL NanoBRET™ Target Engagement assay, which measures the apparent affinity of test compounds by competitive displacement of a Roche -developed Tracer (WO2021058443, Example 2 121, or probe 4a, respectively), reversibly bound to a NanoLuc ® luciferase MAGL fusion protein in cells.
A HEK293A stable cell line expressing NanoLuc_MAGL was established at Roche and assigned as HEK293A_NanoLuc_MAGL clone #43. A fixed concentration of tracer is added to cells expressing the NanoLuc®_MAGL fusion protein to generate a BRET reporter complex. The introduction of competing compounds results in a dose -dependent decrease in NanoBRET™ energy transfer, which allows quantification of the intracellular affinity of the target protein for the test compound.
HEK293A_NanoLuc_MAGL clone #43 cells were cultured in DMEM (Gibco 31966) with 10% FBS and 800 ug/ml G418. The NanoBRET assay was performed by seeding 5000 cells/well in Costar low - volume white 384-well plate in assay buffer (1% FBS in HBSS), followed by adding the tracer (50 nM Example 21 or 100 nM 4a final concentration) and serial dilutions of test compounds. After 2 hours of incubation, Nanoluciferase substrates and extracellular inhibitors were added following the manufacturer's protocol (Promega, #N2520), and the NanoBRET signaling were quantified with the Paradigm (Molecular Devices).

[2] = molecular target: T1, MAGL (Homo sapiens, UniProt Q99685); assay: Native MS (RapidFire) 2-AG substrate assay, purified human MAGL; format: biochemical; conditions: SI Table 1; read-out: IC50 against purified MAGL ± SEM, Human
T1 sequence (Q99685 1-303): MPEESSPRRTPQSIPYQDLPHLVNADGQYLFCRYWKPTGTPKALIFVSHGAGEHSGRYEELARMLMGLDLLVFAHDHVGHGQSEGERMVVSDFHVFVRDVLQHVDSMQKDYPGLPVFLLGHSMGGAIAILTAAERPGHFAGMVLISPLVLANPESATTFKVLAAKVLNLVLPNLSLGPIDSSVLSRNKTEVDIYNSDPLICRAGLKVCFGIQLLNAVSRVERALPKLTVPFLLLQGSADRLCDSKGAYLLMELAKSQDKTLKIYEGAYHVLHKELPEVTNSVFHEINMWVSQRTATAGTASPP
Protocol: (§1) In vitro MAGL Inhibition Assay
(§2) Compounds were profiled for MAGL inhibitory activity by determining the enzymatic activity by following the hydrolysis of the natural substrate 2-arachidonoylglycerol (2-AG), resulting in arachidonic acid, which can be followed by mass spectrometry. The 2-AG assay was carried out in 384 well assay plates (PP, Greiner Cat# 784201) in a total volume of 20 µL. Compound dilutions were made in 100% DMSO (VWR Chemicals 23500.297) in a polypropylene plate in 3-fold dilution steps to give a final concentration range in the assay from 12.5 µM to 0.8 pM. 0.25µL compound dilutions (100% DMSO) were added to 9 µL MAGL in assay buffer (50 mM TRIS (GIBCO, 15567-027), 1 mM EDTA (Fluka, 03690-100 mL), 0.01% (v/v) Tween. After shaking, the plate was incubated for 15 min at RT. To start the reaction, 10 µL 2-arachidonoylglycerol in assay buffer was added. The final concentrations in the assay were 50 pM MAGL and 8 µM 2-arachidonoylglyerol. After shaking and 30 min incubation at RT, the reaction was quenched by the addition of 40µL of ACN containing 4µM of d8-arachidonic acid. The amount of arachidonic acid was traced by an online SPE system (Agilent Rapidfire) coupled to a triple quadrupole mass spectrometer (Agilent 6460). A C18 SPE cartridge (G9205A) was used in an ACN/water liquid setup. The mass spectrometer was operated in negative electrospray mode following the mass transitions 303.1 → 259.1 for arachidonic acid and 311.1 → 267.0 for d8-arachidonic acid. The activity of the compounds was calculated based on the ratio of intensities [arachidonic acid / d8-arachidonic acid]. The lowest IC50 value that can be determined with high accuracy is approximately 0.025 nM.

[3] = molecular target: T2, mMAGL (Mus musculus, UniProt O35678); assay: Native MS (RapidFire) 2-AG substrate assay, purified mouse MAGL; format: biochemical; conditions: SI Table 1; read-out: IC50 against purified MAGL ± SEM, Mouse
T2 sequence (O35678 1-303): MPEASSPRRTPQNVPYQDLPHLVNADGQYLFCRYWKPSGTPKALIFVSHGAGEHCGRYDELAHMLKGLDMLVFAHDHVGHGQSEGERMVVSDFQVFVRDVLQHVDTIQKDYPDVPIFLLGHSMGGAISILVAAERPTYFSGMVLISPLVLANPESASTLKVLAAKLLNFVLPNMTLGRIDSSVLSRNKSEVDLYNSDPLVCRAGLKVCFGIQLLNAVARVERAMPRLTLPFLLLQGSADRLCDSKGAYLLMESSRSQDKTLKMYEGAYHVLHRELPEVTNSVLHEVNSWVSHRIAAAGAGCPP
Protocol: as §1, §2

[4] = molecular target: T3, cMAGL (Macaca fascicularis, UniProt A0A2K5V664); assay: Native MS (RapidFire) 2-AG substrate assay, purified cynomolgus monkey MAGL; format: biochemical; conditions: SI Table 1; read-out: IC50 against purified MAGL ± SEM, Cynomolgus
T3 sequence (A0A2K5V664 11-297): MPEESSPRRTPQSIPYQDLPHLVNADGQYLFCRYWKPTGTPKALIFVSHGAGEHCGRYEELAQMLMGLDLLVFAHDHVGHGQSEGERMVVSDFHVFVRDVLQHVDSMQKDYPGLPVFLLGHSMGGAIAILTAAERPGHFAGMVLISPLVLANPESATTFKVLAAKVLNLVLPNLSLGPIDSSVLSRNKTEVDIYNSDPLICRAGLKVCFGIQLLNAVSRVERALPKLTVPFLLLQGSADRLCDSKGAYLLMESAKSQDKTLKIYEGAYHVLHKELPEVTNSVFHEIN
Protocol: as §1, §2

[5] = molecular target: T4, rMAGL (Rattus norvegicus, UniProt Q8R431); assay: Native MS (RapidFire) 2-AG substrate assay, purified rat MAGL; format: biochemical; conditions: SI Table 1; read-out: IC50 against purified MAGL ± SEM, Rat
T4 sequence (Q8R431 1-303): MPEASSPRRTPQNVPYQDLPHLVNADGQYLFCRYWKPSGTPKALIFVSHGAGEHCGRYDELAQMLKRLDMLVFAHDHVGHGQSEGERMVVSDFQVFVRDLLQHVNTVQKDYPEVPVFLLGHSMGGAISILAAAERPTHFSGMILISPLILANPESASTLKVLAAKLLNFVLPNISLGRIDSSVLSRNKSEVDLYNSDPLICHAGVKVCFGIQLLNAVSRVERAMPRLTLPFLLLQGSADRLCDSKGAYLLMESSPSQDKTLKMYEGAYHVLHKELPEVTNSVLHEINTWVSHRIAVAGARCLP
Protocol: as §1, §2

| IC50 [1] [nM] | IC50 [2] [nM] | IC50 [3] [nM] | IC50 [4] [nM] | IC50 [5] [nM] | Compound |
| --- | --- | --- | --- | --- | --- |
| > 10000 | 500 | 1040 | – | – | O=C1CO[C@H]2CCN(C(=O)N3C[C@@H]4[C@@H](COC5=C6C=CC=[N+]6[B-](F)(F)n6cccc65)[C@@H]4C3)C[C@H]2N1 [Compound S3] |
| 4630 ± 52 | 3.82 ± 1.91 | 7.06 ± 4.73 | 8.37 | 21.6 | O=C1CO[C@H]2CCN(C(=O)N3CC4(CCC(OC5=C6C=CC=[N+]6[B-](F)(F)n6cccc65)CC4)C3)C[C@H]2N1 [Compound S4] |
| > 10000 | 45 | 170 | – | – | O=C1CO[C@H]2CCN(C(=O)N3CCC4(CC3)CC(OC3=C5C=CC=[N+]5[B-](F)(F)n5cccc53)C4)C[C@H]2N1 [Compound S6] |
| > 10000 | 3.99 | 13.6 | – | – | O=C1NC2(CO1)CN(C(=O)N1CCC3(CC1)CC(OC1=C4C=CC=[N+]4[B-](F)(F)n4cccc41)C3)C2 [Compound S8] |
| > 10000 | 1680 | 3400 | – | – | O=C1CO[C@H]2CCN(C(=O)N3CCC(=CC4=C5C=CC=[N+]5[B-](F)(F)n5cccc54)CC3)C[C@H]2N1 [Compound S10] |
| 564 | 2.35 | 12.4 | 2.73 | 10.9 | O=C1CO[C@H]2CCN(C(=O)N3CC4(CCC(CC5=C6C=CC=[N+]6[B-](F)(F)n6cccc65)CC4)C3)C[C@H]2N1 [Compound S12] |
| > 10000 | 43.3 | 182 | – | – | O=C1CO[C@H]2CCN(C(=O)N3CC4(CC(=CC5=C6C=CC=[N+]6[B-](F)(F)n6cccc65)C4)C3)C[C@H]2N1 [Compound S13] |
| > 10000 | 12.6 | 12.4 | – | – | O=C1NC2(CO1)CN(C(=O)N1CC3(CC(=CC4=C5C=CC=[N+]5[B-](F)(F)n5cccc54)C3)C1)C2 [Compound S14] |
| 5540 | 1.26 | 1.36 | 3.27 | 4.46 | O=C1NC2(CO1)CN(C(=O)N1CC3(CC(CC4=C5C=CC=[N+]5[B-](F)(F)n5cccc54)C3)C1)C2 [Compound S15] |
| 574 | 0.67 | 0.81 | – | – | O=C1NC2(CO1)CN(C(=O)N1CC3(CCC(=CC4=C5C=CC=[N+]5[B-](F)(F)n5cccc54)CC3)C1)C2 [Compound S16] |
| 300 | 1.01 | 0.84 | – | – | O=C1N[C@H](CCC(=O)N2CC3(CC(CC4=C5C=CC=[N+]5[B-](F)(F)n5cccc54)C3)C2)CO1 [Compound S17] |
| 1940 | 1.98 | 2.07 | – | – | NC(=O)[C@H]1CCN(C(=O)N2CC3(CC(CC4=C5C=CC=[N+]5[B-](F)(F)n5cccc54)C3)C2)C1 [Compound S18] |
| 299 | 7.5 | 18.6 | – | – | O=C1COc2ccc(C(=O)N3CC4(CC(CC5=C6C=CC=[N+]6[B-](F)(F)n6cccc65)C4)C3)cc2N1 [Compound S19] |
| > 10000 | 17.2 | 108 | – | – | Cc1ccc2oc(N3CCN(C(=O)N4CC5(CC(CC6=C7C=CC=[N+]7[B-](F)(F)n7cccc76)C5)C4)CC3)nc2n1 [Compound S20] |
| 56 ± 6 | 0.66 | 0.37 | – | – | O=C1CO[C@H]2CCN(C(=O)N3CC4(CC(CC5=C6C=CC(c7ccccc7)=[N+]6[B-](F)(F)n6cccc65)C4)C3)C[C@H]2N1 [Compound S22] |
